Where two headings read alike, the source gives them in different places.

The text below walks through data of patent publication EP1022029A1, “NOOTROPIC AGENT” (priority 1997, dated 1999).

Assay type in all cases: cell-based
The target in one experiment is T1, normal ACh receptors (Tetronarce californica, UniProt P02710+P02712+P02714+P02718).
T1 construct: expressed in transfected cells; host or cells: Xenopus oocytes
In words: Calcium permeability of normal ACh receptors in oocytes loaded with Calcium Green. As to conditions: normal solution + nefiracetam (1μM); ACh 100 µM; mean ± SD, n=7. How it is done:
An oocyte expressing normal ACh receptors was loaded with Calcium Green. Intracellular calcium ([Ca^2+]i) and evoked currents (IA) were recorded for each of the cases in which administration of ACh (100 µM) was carried out in a Ca^2+-free (extCa^2+(-)) extracellular solution or in an ordinary extracellular solution (Calcium Green TM-1 (Molecular Probes, Inc. USA) was injected to the oocytes). The Ca^2+ rise was normalized by Δ increase (δI) of intensity/base intensity/current amplitude (µA) obtained with calcium-free media.
In Table 15, each value represents the average from seven oocytes (SD; standard deviation). ACh-evoked currents in the Xenopus oocytes expression system are composed of acetylcholine-gated channel currents and calcium-dependent chloride currents. Nefiracetam had no effect on calcium permeability through the nACh receptor channel. (Table 15). The results from Examples 6a and 6b indicate that nefiracetam modulated acetylcholine-gated channel currents but not calcium-sensitive chloride (Cl^-) currents.

Experiment [1] relates to mutant ACh receptors (mγΔPKA/Ser353,354m δΔPKA/Ser361,362) lacking PKA phosphorylation sites. In words: ACh-evoked currents in mutant ACh receptors lacking PKA phosphorylation sites expressed in Xenopus oocytes. As to conditions: nefiracetam 0.01 µM; 30 min after treatment; n=7. The procedure: ACh (100 µM) was applied to each of an oocyte expressing normal ACh receptors and an oocyte expressing mutant ACh receptors (mγΔPKA/Ser353, 354m δΔPKA/Ser361,362) lacking PKA phosphorylation sites, before and after treatment with nefiracetam (0.01 µM). The oocytes expressing normal ACh receptors were treated with H-89 (1 µM) from 15 min before recording, or with pertussis toxin (0.1 µg/ml) for 24h prior to experiments. The currents illustrated in Table 16 were recorded before and 30 min after treatment with nefiracetam. The holding voltage was - 30 mV. In Table 16, each point represents the average obtained from seven oocytes.
To further examine whether the current depression by nefiracetam is due to PKA phosphorylation of the receptors or not, mutant ACh receptors lacking potent PKA phosphorylation sites on the γ and δ subunits (mγΔ PKA/Ser353,354m δΔPKA/Ser361,362) were expressed in Xenopus oocytes.

A further experiment addresses T2, α4β2 receptor (Rattus norvegicus, UniProt P09483+P12390).
T2 construct: expressed in transfected cells; host or cells: Xenopus oocytes injected with in vitro transcribed mRNA
In words: ACh-evoked currents in α4β2 receptors expressed in Xenopus oocytes (two-electrode voltage clamp). As to conditions: for normalized response (%): nef(+), n=5. How it is done:
Two-electrode voltage-clamp technique was used to record expression α4β2 or α7 receptors in oocytes. ACh (100 µM) was applied to a single oocyte in the presence or absence of α-BuTX (50 nM) or MCA (3 µM). The holding voltage was -30 or -60 mV for α4β2-nAChR or α7-nAChR, respectively. Downward directions correspond to inward currents.
mRNAs for the rat α4β2 receptor and α7 receptor, GLUR1, 2, 3 receptors, and NP152 and NP153 were constructed as described previously. Xenopus oocytes were manually separated from the ovary, and subjected to treatment with collagenase (0.5 mg/ml). Thereafter, the treated oocytes were incubated overnight in Barth's solution (in mM, 88 NaCl, 1 KCl, 2.4 NaHCO3, 0.82 MgSO4, 0.33 […], 0.41 CaCl2, and 7.5 Tris; pH 7.6). The oocytes were injected with the α4β2 or α7 receptor mRNA and incubated at 18°C. In some cases, NP152 and NP153 were co-expressed with the α4β2 and α7 receptors. The injected oocytes were incubated and transferred to a recording chamber 2-7 days after incubation and continuously superfused at room temperature (20-22°C) with a standard frog Ringer's solution [in mM: 115 NaCl, 2 KCl, 1.8 CaCl2, 5 HEPES; pH 7.0]. To remove the effect of endogenous muscarinic ACh receptor, 1 µM atropine was added to the extracellular solution. ACh-evoked currents were recorded by use of two-electrode voltage clamp techniques and an amplifier (GeneClamp-500, Axon Instrument, Inc. USA). The currents were analyzed on a microcomputer by pClamp software (Axon Instrument, Inc.; Version 6). From the results, an assessment was made as to whether nefiracetam actually acts on the nACh receptors.
A general note: In two-electrode clamp one electrode senses voltage and the other passes current.

The subject of experiment [2] is calcium-dependent chloride currents. In words: Calcium-dependent chloride currents in Xenopus oocytes. The procedure: In atropine-free frog Ringer's solution, acetylcholine (Ach) (100 µM) was administered to an oocyte that had not expressed ACh receptors. The holding voltage was -30 mV.
In Xenopus oocyte expression systems, ACh-evoked currents are known to be composed of ACh-gated channel currents and calcium-dependent chloride currents (R. Miledi et al., J. Physiol. 357, 173, 1984). Nefiracetam, however, had no effect on calcium-dependent chloride currents induced by stimulation from the endogenous muscarinic ACh receptors (FIG. 2).

T2 sequence (P09483 31-630): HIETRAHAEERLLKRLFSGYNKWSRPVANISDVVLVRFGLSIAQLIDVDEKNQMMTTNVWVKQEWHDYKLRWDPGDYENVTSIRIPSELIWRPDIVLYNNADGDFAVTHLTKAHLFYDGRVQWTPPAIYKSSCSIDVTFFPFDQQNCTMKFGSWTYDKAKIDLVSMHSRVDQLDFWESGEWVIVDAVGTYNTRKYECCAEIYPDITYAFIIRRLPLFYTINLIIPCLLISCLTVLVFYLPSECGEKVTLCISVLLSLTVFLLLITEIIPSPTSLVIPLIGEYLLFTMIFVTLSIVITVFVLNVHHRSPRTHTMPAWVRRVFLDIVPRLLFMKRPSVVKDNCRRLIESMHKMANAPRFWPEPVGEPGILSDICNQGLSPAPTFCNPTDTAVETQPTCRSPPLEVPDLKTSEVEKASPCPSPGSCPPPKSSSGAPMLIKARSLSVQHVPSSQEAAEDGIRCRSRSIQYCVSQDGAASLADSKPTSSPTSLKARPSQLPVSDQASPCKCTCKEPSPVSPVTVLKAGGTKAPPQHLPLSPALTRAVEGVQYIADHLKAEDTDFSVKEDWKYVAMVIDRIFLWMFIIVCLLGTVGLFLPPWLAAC
T2 sequence (P12390 25-500): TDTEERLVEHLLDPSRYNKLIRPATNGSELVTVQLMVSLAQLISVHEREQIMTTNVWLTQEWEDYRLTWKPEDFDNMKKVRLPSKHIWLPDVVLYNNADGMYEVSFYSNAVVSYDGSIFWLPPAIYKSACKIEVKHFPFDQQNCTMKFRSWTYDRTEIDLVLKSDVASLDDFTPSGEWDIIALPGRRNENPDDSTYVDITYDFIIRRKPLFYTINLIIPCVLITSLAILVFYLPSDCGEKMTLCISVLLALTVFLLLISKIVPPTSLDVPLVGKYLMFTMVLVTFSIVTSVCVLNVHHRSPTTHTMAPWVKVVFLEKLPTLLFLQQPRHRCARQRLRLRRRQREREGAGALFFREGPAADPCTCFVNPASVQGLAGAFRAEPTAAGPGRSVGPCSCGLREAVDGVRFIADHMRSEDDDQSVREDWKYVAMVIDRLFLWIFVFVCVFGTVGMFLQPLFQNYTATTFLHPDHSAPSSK
T1 sequence (P02710 25-461): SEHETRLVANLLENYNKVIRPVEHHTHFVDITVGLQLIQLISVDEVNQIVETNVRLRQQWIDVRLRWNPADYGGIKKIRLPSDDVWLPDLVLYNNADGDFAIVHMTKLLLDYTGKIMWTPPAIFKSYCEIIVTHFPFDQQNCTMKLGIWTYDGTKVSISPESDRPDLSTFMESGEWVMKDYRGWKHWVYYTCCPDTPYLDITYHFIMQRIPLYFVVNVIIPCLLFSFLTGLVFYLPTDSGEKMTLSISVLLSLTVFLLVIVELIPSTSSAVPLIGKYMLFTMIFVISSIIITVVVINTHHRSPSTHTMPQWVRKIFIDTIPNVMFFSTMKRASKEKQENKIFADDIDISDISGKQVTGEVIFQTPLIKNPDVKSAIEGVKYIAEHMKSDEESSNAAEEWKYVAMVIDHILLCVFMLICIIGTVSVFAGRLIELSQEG
T1 sequence (P02712 25-493): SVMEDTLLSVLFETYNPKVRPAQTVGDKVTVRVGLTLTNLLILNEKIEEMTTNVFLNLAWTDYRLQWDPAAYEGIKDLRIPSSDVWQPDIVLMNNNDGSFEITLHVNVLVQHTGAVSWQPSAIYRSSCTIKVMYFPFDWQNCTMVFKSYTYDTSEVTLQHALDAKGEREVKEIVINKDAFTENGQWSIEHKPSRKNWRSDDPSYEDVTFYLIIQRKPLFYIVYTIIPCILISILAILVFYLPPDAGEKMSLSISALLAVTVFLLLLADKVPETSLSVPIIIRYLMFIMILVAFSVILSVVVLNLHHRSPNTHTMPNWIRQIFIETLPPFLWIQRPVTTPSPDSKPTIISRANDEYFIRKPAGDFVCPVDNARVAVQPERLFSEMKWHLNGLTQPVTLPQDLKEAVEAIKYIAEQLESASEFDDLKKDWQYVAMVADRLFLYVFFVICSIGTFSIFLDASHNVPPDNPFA
T1 sequence (P02714 18-506): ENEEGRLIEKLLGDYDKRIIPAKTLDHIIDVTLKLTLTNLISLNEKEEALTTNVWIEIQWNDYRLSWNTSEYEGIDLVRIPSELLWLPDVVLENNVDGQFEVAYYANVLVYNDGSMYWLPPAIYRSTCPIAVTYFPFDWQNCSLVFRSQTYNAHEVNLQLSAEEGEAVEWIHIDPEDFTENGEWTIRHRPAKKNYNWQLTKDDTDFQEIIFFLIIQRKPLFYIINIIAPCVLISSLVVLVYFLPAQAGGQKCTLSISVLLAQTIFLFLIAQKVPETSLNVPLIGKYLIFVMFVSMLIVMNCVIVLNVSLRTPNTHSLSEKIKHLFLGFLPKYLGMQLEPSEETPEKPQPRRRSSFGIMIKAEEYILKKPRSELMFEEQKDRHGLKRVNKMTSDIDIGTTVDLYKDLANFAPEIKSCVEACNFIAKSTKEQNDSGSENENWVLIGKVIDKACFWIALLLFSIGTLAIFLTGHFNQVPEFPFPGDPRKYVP
T1 sequence (P02718 22-522): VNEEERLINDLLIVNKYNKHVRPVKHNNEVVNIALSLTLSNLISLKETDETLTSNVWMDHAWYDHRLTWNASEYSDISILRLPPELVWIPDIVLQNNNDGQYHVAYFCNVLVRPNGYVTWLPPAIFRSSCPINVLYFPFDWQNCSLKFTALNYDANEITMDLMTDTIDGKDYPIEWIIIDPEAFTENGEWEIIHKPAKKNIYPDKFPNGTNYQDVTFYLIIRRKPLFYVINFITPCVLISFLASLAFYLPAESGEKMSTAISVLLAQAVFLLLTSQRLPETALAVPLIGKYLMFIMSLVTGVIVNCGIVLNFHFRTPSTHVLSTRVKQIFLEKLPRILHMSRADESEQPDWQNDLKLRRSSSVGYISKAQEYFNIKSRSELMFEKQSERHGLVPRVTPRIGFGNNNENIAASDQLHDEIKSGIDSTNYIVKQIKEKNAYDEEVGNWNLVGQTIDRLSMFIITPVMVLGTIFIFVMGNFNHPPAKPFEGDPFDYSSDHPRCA

`Cc1cccc(C)c1NC(=O)CN1CCCC1=O` [nefiracetam, 2-oxo-1-pyrrolidinylacetic acid 2,6-dimethylanilide]: on normal ACh receptors, the “normalized Ca^2+ rise (Δ increase of intensity / base intensity / current amplitude)” value was 6.6 ± 1.4. Besides, in experiment [1], the “ACh-evoked currents increased to” value was 159%. In addition, the “concentration of maximum potentiation of ACh-evoked currents” value at α4β2 receptor worked out at 0.1 µM. Further, the activity at 1 µM on α4β2 receptor (1 h, nefiracetam 1 µM, 60 minutes after treatment, read-out: ACh-evoked currents potentiated, reaching) turned out to be 180%; on α4β2 receptor (Nefiracetam 1 µM, n = 5 to 8, read-out: % of the original amplitude), 161 ± 12.6%. Further, the “normalized response (%)” value on α4β2 receptor (ACh 0.1 µM, nefiracetam 1 µM) was found to be 0%; on α4β2 receptor (ACh 1 µM, nefiracetam 1 µM), 2%; on α4β2 receptor (ACh 10 µM, nefiracetam 1 µM) it was 36%; at α4β2 receptor (ACh 100 µM, nefiracetam 1 µM), 66%; at α4β2 receptor (ACh 1000 µM, nefiracetam 1 µM), 100%. Moreover, the activity at 0.0001 µM on α4β2 receptor (Nefiracetam 0.0001 µM, n = 5 to 8, read-out: % of the original amplitude) is 100 ± 15.5%. For the same compound, on α4β2 receptor (Nefiracetam 0.001 µM, n = 5 to 8, read-out: % of the original amplitude), the activity at 0.001 µM is 150 ± 13.6%. Moreover, the activity at 0.01 µM on α4β2 receptor (Nefiracetam 0.01 µM, n = 5 to 8, read-out: % of the original amplitude) amounted to 212 ± 20.5%. In addition, the activity at 0.1 µM at α4β2 receptor (Nefiracetam 0.1 µM, n = 5 to 8, read-out: % of the original amplitude) stood at 225 ± 18.9%. The activity at 10 µM at α4β2 receptor (Nefiracetam 10 µM, n = 5 to 8, read-out: % of the original amplitude) worked out at 156 ± 17.6%. Moreover, on α4β2 receptor (in the presence of the inactive PKC inhibitory peptide (NP153; iPKCI)), the “currents potentiated to” value is listed as 169.3%. The “concentration at which potentiation of ACh-evoked currents was observed” value on α4β2 receptor (lowest effective concentration) is at least 0.0001 µM. In addition, the “% of the original amplitude (Ach-evoked current)” value at α4β2 receptor (treatment as labelled, nefiracetam 1 µM, GF109203X 100 nM, peptides co-expressed, Mean ± SD, n = 6 to 8) came out at 160 ± 5.6%. Also, the “effect on calcium-dependent chloride currents induced by stimulation from the endogenous muscarinic ACh receptors (FIG. 2)” value in experiment [2] (oocyte not expressing ACh receptors, atropine-free Ringer, ACh 100 µM) is reported as “had no effect”. In experiment [2] (oocytes, data not shown), the “effect on chloride ion (Cl^-) currents evoked by Ca^2+ influx through the nACh receptor channels” value is “had no effect”.
